Source: patent publication US20190125826A1, “METHODS AND PHARMACEUTICAL COMPOSITION FOR THE TREATMENT OF INFLAMMATORY SKIN DISEASES ASSOCIATED WITH DESMOGLEIN-1 DEFICIENCY” (INSERM (INSTITUT NATIONAL DE LA SANTÉ ET DE LA MÉDICALE), priority 2016, published 2019)

Target: T1, IKK-2 (Homo sapiens, UniProt O14920)
T1 construct: endogenous in cells; host or cells: primary keratinocytes from a healthy control and from Patient#1
T1 sequence (O14920 1-756): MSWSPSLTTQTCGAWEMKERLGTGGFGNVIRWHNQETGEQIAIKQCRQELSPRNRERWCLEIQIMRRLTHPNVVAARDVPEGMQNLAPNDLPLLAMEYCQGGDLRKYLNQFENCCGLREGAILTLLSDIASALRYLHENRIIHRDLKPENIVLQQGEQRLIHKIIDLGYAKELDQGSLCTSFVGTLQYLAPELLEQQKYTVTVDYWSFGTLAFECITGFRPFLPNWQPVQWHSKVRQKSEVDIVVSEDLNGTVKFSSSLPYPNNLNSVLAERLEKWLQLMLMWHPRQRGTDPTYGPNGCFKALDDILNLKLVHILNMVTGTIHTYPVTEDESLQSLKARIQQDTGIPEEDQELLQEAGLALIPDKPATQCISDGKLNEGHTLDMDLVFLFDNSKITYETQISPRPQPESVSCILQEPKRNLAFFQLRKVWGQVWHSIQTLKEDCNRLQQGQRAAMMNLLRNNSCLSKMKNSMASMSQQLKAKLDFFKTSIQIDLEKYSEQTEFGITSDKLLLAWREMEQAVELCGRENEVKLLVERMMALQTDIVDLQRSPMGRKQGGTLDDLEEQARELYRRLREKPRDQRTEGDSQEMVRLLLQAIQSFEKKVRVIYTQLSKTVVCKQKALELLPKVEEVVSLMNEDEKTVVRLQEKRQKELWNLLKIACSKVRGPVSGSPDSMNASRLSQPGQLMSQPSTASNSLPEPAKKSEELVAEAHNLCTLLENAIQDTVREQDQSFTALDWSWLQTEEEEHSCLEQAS
Assay: Inhibition of IKK-2 by ML120B in keratinocytes (IL8 mRNA by RT-qPCR)
Format: cell-based
Settings: Patient#1 keratinocytes; ML120B 20 μM preincubated 1 h, then 10 ng/ml IL-1β, 24 h
Protocol: Total RNAs were isolated from cultured keratinocytes, HEK293T cells and frozen skin biopsies from the two patients and controls using the RNeasy Plus Minikit (Qiagen GmbH, Hilden, Germany), according to the manufacturer's instructions. RNA samples were reverse-transcribed into cDNA using the High Capacity cDNA Reverse Transcriptase Kit (Applied Biosystems, Foster City, Calif., USA). Real-time PCR was carried out using the Fast SYBR Green PCR Master Mix (PE Applied Biosystems) on an ABI prism 7000 (PE Applied Biosystems). RT-qPCR primers were designed using the sequences available in Ensembl and spanned an intron-exon boundary. The amounts of the various mRNAs were normalized against the amount of beta actin RNA measured by RT-qPCR in each sample. The results were analyzed with DataAssist® (version 3.01, Applied Biosystems), which uses the comparative Ct (ddCt) method.
Keratinocytes from a healthy control and from Patient#1 were seeded into 12-well plates (100 000 cells/well). 24 hours later, keratinocytes were preincubated with ML120B 20 μM at 37° C. for 1 h and then stimulated with 10 ng/ml IL-1β. 24 hours after the stimulation, the cells were pelleted for RNA extraction. ML120B was sent as a gift by Emmanuel Laplantine (Institut Pasteur, Paris, France).

- production of IL8: restored the normal production of IL8
SMILES: COc1c(Cl)cc2c([nH]c3cnccc32)c1NC(=O)c1cccnc1C [ML120B]
